Reference: patent US20250042847A1, “SUBSTITUTED PHENYLPROPIONIC ACID DERIVATIVE AND USE THEREOF” (TUOJIE BIOTECH (SHANGHAI) CO., LTD., priority 2021, published 2025)
Structures can show the parent of a compound that is named as a salt.

Assays:
[1] = In vivo pharmacokinetic experiment on cynomolgus monkeys; conditions: intragastric; for AUC / half-life / Cmax: both sexes, cynomolgus monkey, plasma, po; for AUC: read-out: Area under curve AUC; for half-life: read-out: Half-life T1/2 (converted); for Cmax: read-out: Maximum plasma concentration Cmax
Description: (§1) Cynomolgus monkeys were used as test animals. After intragastric administration of the compound of the disclosure to cynomolgus monkeys, plasma concentrations at different time points were determined by LC/MS/MS. The pharmacokinetic behavior of the compound of the disclosure in cynomolgus monkeys was studied and its pharmacokinetic profile was evaluated.
Test Animals: 2 Healthy Cynomolgus Monkeys Aged 24-36 Months Per Group (One Male and One Female)
Compound solution preparation: Certain amounts of compound were weighed out and normal saline was added to form 10 mg/mL (reference 1) and 3 mg/mL (compound 6) colorless clear solutions.
Administration: Cynomolgus monkeys were fasted overnight and then intragastrically dosed. Reference 1 was administered at a dose of 50 mg/kg, and compound 6 was administered at a dose of 15 mg/kg.
(§2) Procedure: Cynomolgus monkeys were intragastrically administered the compound of the disclosure. Blood samples of about 0.5 mL were collected from the peripheral vein at 0.25, 0.5, 1, 2, 4, 6, 8, and 24 h post-dose and placed into test tubes containing EDTA-K2. The blood samples were centrifuged at about 4° C. at 2000 rpm for 10 min to separate plasma, and the plasma was stored at −75° C.
(§3) Determination of the content of the test compound in cynomolgus monkey plasma at these different blood collection time points: Samples of 33 μL (30 μL of plasma and 3 μL of blank) of the cynomolgus monkey plasma collected at these time points post-dose were taken and added to 18 μL of a 6% perchloric acid solution. After 30 s of vortexing, the mixture was centrifuged at a temperature of 4° C. at 3900 rpm for 15 min, and 200 μL of alkalinized (the pH was adjusted to 10-11 with ammonia water) acetonitrile solution containing dexamethasone as an internal standard was then added to precipitate protein. After 30 s of vortexing, the mixture was centrifuged at 4° C. at 3900 rpm for 15 min. The supernatants of the plasma samples were taken and 3-fold diluted with water, and 8 μL of dilution was taken for LC/MS/MS analysis.
(§4) After plasma concentrations were determined by LC/MS/MS analysis, pharmacokinetic parameters were calculated using WinNonlin 6.1 software and a non-compartmental model method.

[2] = In vivo pharmacokinetic experiment on beagles; conditions: intragastric, 10 mg/kg
Description: as §1, with “Beagles” for “Cynomolgus monkeys”, “beagles,” for “cynomolgus monkeys,”, “beagles” for “cynomolgus monkeys”
Test Animals: 2 Healthy Male Beagles Aged 8-36 Months Per Group
Compound solution preparation: A certain amount of compound was weighed out and normal saline was added to form a 2 mg/mL colorless clear solution.
Administration: Beagles were fasted overnight and then intragastrically dosed. Reference 1 and compound 6 were both administered at a dose of 10 mg/kg.
as §2, with “Procedure: Beagles” for “Procedure: Cynomolgus monkeys”, “about 0.6” for “about 0.5”
as §3, with “beagle” for “cynomolgus monkey”
as §4

[3] = High-dose single-dose tolerance experiment on mice; format: in vivo, C57/6J mice; conditions: for body weight trend of the mice: 7 d after high-dose (1000 mg/kg) administration, conclusion in words; for Mouse body weight, Day 0 / Mouse body weight, Day 3 / Mouse body weight, Day 5 / Mouse body weight, Day 7: male C57/6J mice, single oral gavage 1000 mg/kg, mean
Description: C57/6J mice were used as test animals and administered a high dose of the compound of the disclosure by oral gavage. Clinical observations were carried out on the mice, and the safety of the compound of the disclosure was evaluated.
Experimental method: 8 male C57/6J mice were numbered 1-8 and weighed. The mice were fasted for 4 h before the experiment and weighed after the fast (0 h). Six mice with body weights closer to the average were selected and divided into 2 groups of 3.
The first group (G1) was administered reference 1, and the second group (G2) was administered the compound of the disclosure, Example 6. In both groups G1 and G2, the compounds were administrated by oral gavage at a dose of 1000 mg/kg, with normal saline as a vehicle. Clinical observations were carried out on the mice in the experimental group at 15 min, 30 min, 1 h, 2 h, 4 h, 6 h, and 24 h post-dose, and both groups were given food at 2 h post-dose.

[4] = target: Apo(a) and ApoB protein assembly (Homo sapiens (Human), UniProt P08519); test: Test for activity of compounds in inhibiting Lp(a) assembly (double antibody ELISA); format: biochemical; conditions: plasma from human transgenic hApo(a) and hApoB mice; 37° C., 2 h; ELISA absorbance at 450 nm
Apo(a) and ApoB protein assembly, sequence (P08519 20-2040): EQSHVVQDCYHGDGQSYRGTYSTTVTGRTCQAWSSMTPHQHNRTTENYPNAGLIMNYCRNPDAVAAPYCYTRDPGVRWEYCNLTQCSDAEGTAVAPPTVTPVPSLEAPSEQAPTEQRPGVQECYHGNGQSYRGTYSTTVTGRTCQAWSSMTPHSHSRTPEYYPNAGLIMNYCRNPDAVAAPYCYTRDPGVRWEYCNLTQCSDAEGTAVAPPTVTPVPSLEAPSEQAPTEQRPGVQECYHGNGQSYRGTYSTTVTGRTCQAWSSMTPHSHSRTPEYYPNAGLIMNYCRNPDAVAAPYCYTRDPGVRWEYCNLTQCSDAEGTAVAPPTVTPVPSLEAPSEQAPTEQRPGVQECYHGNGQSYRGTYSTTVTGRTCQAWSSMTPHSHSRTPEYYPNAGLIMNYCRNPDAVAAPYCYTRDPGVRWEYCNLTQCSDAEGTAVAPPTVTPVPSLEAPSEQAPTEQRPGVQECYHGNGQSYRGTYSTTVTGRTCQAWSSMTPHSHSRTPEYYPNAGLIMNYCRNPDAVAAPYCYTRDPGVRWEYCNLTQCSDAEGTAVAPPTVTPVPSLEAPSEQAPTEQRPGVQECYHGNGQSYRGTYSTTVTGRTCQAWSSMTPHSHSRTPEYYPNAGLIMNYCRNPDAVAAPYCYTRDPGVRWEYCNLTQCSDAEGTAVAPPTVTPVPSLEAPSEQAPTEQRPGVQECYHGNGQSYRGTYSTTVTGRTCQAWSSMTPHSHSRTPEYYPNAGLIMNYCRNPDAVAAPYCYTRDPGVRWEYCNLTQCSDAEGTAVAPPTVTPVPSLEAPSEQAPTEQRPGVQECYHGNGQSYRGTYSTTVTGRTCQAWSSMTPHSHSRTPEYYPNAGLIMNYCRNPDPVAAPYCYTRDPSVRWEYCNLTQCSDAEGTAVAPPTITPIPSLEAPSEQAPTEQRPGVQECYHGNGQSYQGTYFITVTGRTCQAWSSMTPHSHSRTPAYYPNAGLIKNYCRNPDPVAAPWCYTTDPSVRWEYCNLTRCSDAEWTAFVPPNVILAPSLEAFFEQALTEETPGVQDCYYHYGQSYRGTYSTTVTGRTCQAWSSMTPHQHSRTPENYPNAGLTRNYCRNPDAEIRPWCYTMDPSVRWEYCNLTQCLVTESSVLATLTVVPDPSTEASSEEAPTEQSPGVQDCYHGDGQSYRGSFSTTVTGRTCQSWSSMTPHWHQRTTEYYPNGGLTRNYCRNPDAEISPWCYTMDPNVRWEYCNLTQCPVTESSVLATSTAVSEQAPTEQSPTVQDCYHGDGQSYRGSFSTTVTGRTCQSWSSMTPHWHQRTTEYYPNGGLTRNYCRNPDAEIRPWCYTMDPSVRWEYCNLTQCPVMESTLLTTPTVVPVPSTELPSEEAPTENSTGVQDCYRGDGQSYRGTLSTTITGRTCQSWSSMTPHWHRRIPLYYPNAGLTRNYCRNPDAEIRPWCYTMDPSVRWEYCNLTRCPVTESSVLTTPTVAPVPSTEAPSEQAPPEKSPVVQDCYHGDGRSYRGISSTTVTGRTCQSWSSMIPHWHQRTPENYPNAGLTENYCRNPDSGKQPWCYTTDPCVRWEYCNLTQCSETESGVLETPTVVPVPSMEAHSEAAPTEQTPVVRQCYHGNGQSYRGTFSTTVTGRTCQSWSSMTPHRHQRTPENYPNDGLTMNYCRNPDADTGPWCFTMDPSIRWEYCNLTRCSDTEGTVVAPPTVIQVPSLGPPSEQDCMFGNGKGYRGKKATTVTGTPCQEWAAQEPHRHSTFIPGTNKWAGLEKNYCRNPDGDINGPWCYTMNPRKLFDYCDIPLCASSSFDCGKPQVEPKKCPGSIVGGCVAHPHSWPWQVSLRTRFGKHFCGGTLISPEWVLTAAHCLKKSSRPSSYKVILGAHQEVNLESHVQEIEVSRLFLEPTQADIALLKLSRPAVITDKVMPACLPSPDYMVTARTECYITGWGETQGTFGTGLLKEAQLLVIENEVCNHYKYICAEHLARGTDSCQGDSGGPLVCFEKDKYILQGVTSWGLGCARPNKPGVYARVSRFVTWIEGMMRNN
Description: The disclosure used a double antibody ELISA method to measure the efficiency of Apo(a) and ApoB protein assembly. The antibodies were ApoB-Capture antibody (Mabtech) and Apo(a)-Detector antibody (Abcam); the test samples were plasma from human transgenic hApo(a) and hApoB mice and were diluted 500-fold before use.
Experimental steps: Equal amounts of Apo(a) and ApoB serum were mixed with a serially diluted test compound (highest concentration at 100 nM, serially diluted 3-fold). The mixture was incubated in a 37° C. incubator for 2 h. The reaction was then terminated by adding 6-aminocaproic acid (EACA, purchased from Sigma) to a final concentration of 150 mM. The post-reaction solution was then added to an ELISA plate pre-coated with ApoB-Capture antibody, and the plate was incubated at room temperature for 2 h. Then the plate was washed 4 times with wash buffer; biotinylated Apo(a)-Detector antibody was added, and the plate was incubated at room temperature for 1 h. The plate was washed, and the chromogenic substrate 3,3′,5,5′-tetramethylbenzidine (TMB, purchased from Abcam) solution was added. After the plate was incubated at room temperature for 15 min, a reaction stop solution was added. Immediately after the solution was mixed well, the absorbance at 450 nm was measured using a microplate reader. Finally, data analysis and IC50 calculation were performed using GraphPad Prism 9 software.
The 0% inhibition rate for Apo(a) and ApoB protein assembly corresponds to the OD value where the compound concentration was 0 (1% DMSO); the 100% inhibition rate for Apo(a) and ApoB protein assembly corresponds to the OD value where only ApoB protein solution (a dilution of plasma from hApoB mice) was added.

O=C(O)[C@@H](Cc1cccc(CN(Cc2cccc(C[C@H](C(=O)O)[C@H]3CCNC3)c2)Cc2cccc(C[C@H](C(=O)O)[C@H]3CCNC3)c2)c1)[C@H]1CCNC1 [Reference 1, reference compound]
AUC ([1]; 50 mg/kg): 22200 ng·h/mL | half-life ([1]; 50 mg/kg): 17.7 h | Cmax ([1]; 50 mg/kg): 2190 ng/mL | Unit-dose area under curve AUC/D ([1]; 50 mg/kg): 443 ng·h/mL per mg/kg | AUC ([2]; male, beagle, dog, plasma, po, read-out: Area under curve AUC): 23000 ng·h/mL | half-life ([2]; male, beagle, dog, plasma, po, read-out: Half-life T1/2 (converted)): 20.7 h | Cmax ([2]; male, beagle, dog, plasma, po, read-out: Maximum plasma concentration Cmax): 1630 ng/mL | body weight trend of the mice [3]: significant downward trend | Mouse body weight, Day 0 [3]: 25.87 g | Mouse body weight, Day 3 [3]: 25.70 g | Mouse body weight, Day 5 [3]: 25.10 g | Mouse body weight, Day 7 [3]: 24.53 g

O=C(O)[C@@H](Cc1cccc(CN(CCOc2cccc(C[C@H](C(=O)O)[C@H]3CCNC3)c2)Cc2cccc(C[C@H](C(=O)O)[C@H]3CCNC3)c2)c1)[C@H]1CCNC1 [Compound 6, (2S)-3-(3-{[(2-{3-[(2S)-2-Carboxy-2-[(3R)-pyrrolidin-3-yl]ethyl]phenoxy}ethyl)({3-[(2S)-2-carboxy-2-[(3R)-pyrrolidin-3-yl]ethyl]phenyl}methyl)amino]methyl}phenyl)-2-[(3R)-pyrrolidin-3-yl]propanoic acid tetrahydrochloride]
IC50 [4]: 0.41 nM | AUC ([1]; 15 mg/kg): 33100 ng·h/mL | half-life ([1]; 15 mg/kg): 16.6 h | Cmax ([1]; 15 mg/kg): 2370 ng/mL | Unit-dose area under curve AUC/D ([1]; 15 mg/kg): 2200 ng·h/mL per mg/kg | plasma exposure relative to reference 1 ([1]; compound 6 15 mg/kg vs reference 1 50 mg/kg): ~5 times | oral absorption compared with reference 1 ([1]; conclusion in words): better | oral absorption compared with reference 1 ([2]; conclusion in words): better | body weight trend of the mice [3]: remained unchanged or even increased | Mouse body weight, Day 0 [3]: 25.83 g | Mouse body weight, Day 3 [3]: 26.93 g | Mouse body weight, Day 5 [3]: 26.70 g | Mouse body weight, Day 7 [3]: 26.67 g

O=C(O)[C@@H](Cc1cccc(CNCCN(Cc2cccc(C[C@H](C(=O)O)[C@H]3CCNC3)c2)Cc2cccc(C[C@H](C(=O)O)[C@H]3CCNC3)c2)c1)[C@H]1CCNC1 [Compound 5, (2S)-3-(3-{[({3-[(2S)-2-Carboxy-2-[(3R)-pyrrolidin-3-yl]ethyl]phenyl}methyl)({2-[({3-[(2S)-2-carboxy-2-[(3R)-pyrrolidin-3-yl]ethyl]phenyl}methyl)amino]ethyl})amino]methyl}phenyl)-2-[(3R)-pyrrolidin-3-yl]propanoic acid]
IC50 [4]: 0.78 nM

O=C(O)C(F)(Cc1cccc(CN(Cc2cccc(CC(F)(C(=O)O)[C@H]3CCNC3)c2)Cc2cccc(CC(F)(C(=O)O)[C@H]3CCNC3)c2)c1)[C@H]1CCNC1 (stereo partly drawn) [Compound 3, 3-[3-({Bis[(3-{2-carboxy-2-fluoro-2-[(3S)-pyrrolidin-3-yl]ethyl}phenyl)methyl]amino}methyl)phenyl]-2-fluoro-2-[(3S)-pyrrolidin-3-yl]propanoic acid]
IC50 [4]: 1.4 nM

O=C(O)[C@@H](Cc1cccc(CN(CCNc2cccc(C[C@H](C(=O)O)[C@H]3CCNC3)c2)Cc2cccc(C[C@H](C(=O)O)[C@H]3CCNC3)c2)c1)[C@H]1CCNC1 [Compound 7, (2S)-3-[3-({[2-({3-[(2S)-2-Carboxy-2-[(3R)-pyrrolidin-3-yl]ethyl]phenyl}amino)ethyl]({3-[(2S)-2-carboxy-2-[(3R)-pyrrolidin-3-yl]ethyl]phenyl}methyl)amino}methyl)phenyl]-2-[(3R)-pyrrolidin-3-yl]propanoic acid pentahydrochloride]
IC50 [4]: 0.76 nM

O=C(O)[C@@H](Cc1cccc(CN(CCN(Cc2cccc(C[C@H](C(=O)O)[C@H]3CCNC3)c2)Cc2cccc(C[C@H](C(=O)O)[C@H]3CCNC3)c2)Cc2cccc(C[C@H](C(=O)O)[C@H]3CCNC3)c2)c1)[C@H]1CCNC1 [Compound 4, (2S)-3-{3-[({2-[Bis({3-[(2S)-2-carboxy-2-[(3R)-pyrrolidin-3-yl]ethyl]phenyl}methyl)amino]ethyl}({3-[(2S)-2-carboxy-2-[(3R)-pyrrolidin-3-yl]ethyl]phenyl}methyl)amino)methyl]phenyl}-2-[(3R)-pyrrolidin-3-yl]propanoic acid]
IC50 [4]: 0.85 nM

O=C(O)[C@@H](Cc1cccc(CN(Cc2cccc(C[C@H](C(=O)O)C3CCNCC3)c2)Cc2cccc(C[C@H](C(=O)O)C3CCNCC3)c2)c1)C1CCNCC1 [Compound 2, (2S)-3-(3-{[Bis({3-[(2S)-2-carboxy-2-(piperidin-4-yl)ethyl]phenyl}methyl)amino]methyl}phenyl)-2-(piperidin-4-yl)propanoic acid]
IC50 [4]: 1.7 nM

O=C(O)[C@@H](Cc1cc(F)cc(CN(Cc2cc(F)cc(C[C@H](C(=O)O)[C@H]3CCNC3)c2)Cc2cc(F)cc(C[C@H](C(=O)O)[C@H]3CCNC3)c2)c1)[C@H]1CCNC1 [Compound 1, (2S)-3-(3-{[Bis({3-[(2S)-2-carboxy-2-[(3R)-pyrrolidin-3-yl]ethyl]-5-fluorophenyl}methyl)amino]methyl}-5-fluorophenyl)-2-[(3R)-pyrrolidin-3-yl]propanoic acid]
IC50 [4]: 0.75 nM
